As to `O=c1c2c(Cc3ccccc3)n[nH]c2c2ccncc2n1-c1ccccc1` [Example 29, 3-Benzyl-5-phenyl-1H-pyrazolo[4,3-c][1,7]naphthyridin-4(5H)-one], the melting point lay within 303 to 307 °C.
The figure for `O=c1c2c(Cc3ccccc3OC(F)(F)F)n[nH]c2c2cccnc2n1-c1ccccc1` (hydrate or solvate) [Example 4, 5-Phenyl-3-(2-trifluoromethoxybenzyl)-1H-pyrazolo[4,3-c][1,8]naphthyridin-4(5H)-one] is 275 °C (dec.); for `COc1ccccc1Cc1n[nH]c2c1c(=O)n(-c1cccc(OC(F)(F)F)c1)c1ncccc21` (hydrate or solvate) [Example 31, 3-(2-Methoxybenzyl)-5-(3-trifluoromethoxyphenyl)-1H-pyrazolo[4,3-c][1,8]-naphthyridin-4(5H)-one] it is 243 to 245 °C.
The compound `O=c1c2c(Cc3cccc(C(F)(F)F)c3)n[nH]c2c2cccnc2n1-c1cccc(C(F)(F)F)c1` [Example 18, 3-(3-Trifluoromethylbenzyl)-5-(3-trifluoromethylphenyl)-1H-pyrazolo[4,3-c][1,8]naphthyridin-4(5H)-one] yielded a melting point of 206 to 208 °C.
As for `O=c1c2c(Cc3ccccc3)n[nH]c2c2cccnc2n1-c1cccc(OC(F)(F)F)c1` (hydrate or solvate) [Example 1, 3-Benzyl-5-(3-trifluoromethoxyphenyl)-1H-pyrazolo[4,3-c][1,8]-naphthyridin-4(5H)-one], the figure is 249 to 251 °C.
The compound `Cc1ccccc1Cc1n[nH]c2c1c(=O)n(-c1cccc(OC(F)(F)F)c1)c1ncccc21` (hydrate or solvate) [Example 34, 3-(2-Methylbenzyl)-5-(3-trifluoromethoxyphenyl)-1H-pyrazolo[4,3-c][1,8]-naphthyridin-4(5H)-one] had a melting point of 240 to 242 °C.
As for `CC(c1ccccc1)c1n[nH]c2c1c(=O)n(-c1ccccc1)c1ncccc21` (stereo not drawn) (hydrate or solvate) [Example 11, 5-Phenyl-3-(1-phenylethyl)-1H-pyrazolo[4,3-c][1,8]naphthyridin-4(5H)-one], the figure is 267 to 268 °C; as for `COCc1n[nH]c2c1c(=O)n(-c1ccccc1)c1ncccc21` (hydrate or solvate) [Example 10, 3-(Methoxymethyl)-5-phenyl-1H-pyrazolo[4,3-c][1,8]naphthyridin-4(5H)-one], 263 to 265 °C.
As for `O=c1c2c(Cc3ccc(OC(F)(F)F)cc3)n[nH]c2c2cccnc2n1-c1cccc(OC(F)(F)F)c1` [Example 28, 3-(4-Trifluoromethoxybenzyl)-5-(3-trifluoromethoxyphenyl)-1H-pyrazolo[4,3-c][1,8]naphthyridin-4(5H)-one], the figure is 129 to 132 °C; as for `O=c1c2c(Cc3cccc(OC(F)(F)F)c3)n[nH]c2c2cccnc2n1-c1cccc(C(F)(F)F)c1` [Example 21, 3-(3-Trifluoromethoxybenzyl)-5-(3-trifluoromethylphenyl)-1H-pyrazolo[4,3-c][1,8]naphthyridin-4(5H)-one], 129 to 132 °C.
As for `CCC(c1ccccc1)c1n[nH]c2c1c(=O)n(-c1ccccc1)c1ncccc21` (stereo not drawn) [Example 43, 5-Phenyl-3-(1-phenylpropyl)-1H-pyrazolo[4,3-c][1,8]naphthyridin-4(5H)-one], the figure is 233 to 235 °C; as for `O=c1c2c(Cc3ccccc3[N+](=O)[O-])n[nH]c2c2cccnc2n1-c1cccc(OC(F)(F)F)c1` (hydrate or solvate) [Example 35, 3-(2-Nitrobenzyl)-5-(3-trifluoromethoxyphenyl)-1H-pyrazolo[4,3-c][1,8]-naphthyridin-4(5H)-one], 274 to 276 °C.
Take `O=c1c2c(CCCCCCc3ccccc3)n[nH]c2c2cccnc2n1-c1ccccc1` [Example 12, 5-Phenyl-3-(6-phenylhexyl)-1H-pyrazolo[4,3-c][1,8]naphthyridin-4(5H)-one]: the melting point fell in the range of 150 to 151 °C.
As for `O=c1c2c(Cc3ccc(C(F)(F)F)cc3)n[nH]c2c2cccnc2n1-c1cccc(C(F)(F)F)c1` [Example 19, 3-(4-Trifluoromethylbenzyl)-5-(3-trifluoromethylphenyl)-1H-pyrazolo[4,3-c][1,8]naphthyridin-4(5H)-one], the figure is 145 to 148 °C; as for `COc1ccccc1Cc1n[nH]c2c1c(=O)n(-c1cccc(C(F)(F)F)c1)c1ncccc21` (hydrate or solvate) [Example 37, 3-(2-Methoxybenzyl)-5-(3-trifluoromethylphenyl)-1H-pyrazolo[4,3-c][1,8]-naphthyridin-4(5H)-one], 229 to 231 °C.
Turning to `O=c1c2c(Cc3cccc(C(F)(F)F)c3)n[nH]c2c2cccnc2n1-c1cccc(OC(F)(F)F)c1` [Example 24, 5-(3-Trifluoromethoxyphenyl)-3-(3-trifluoromethylbenzyl)-1H-pyrazolo[4,3-c][1,8]naphthyridin-4(5H)-one], the melting point was in the range of 206 to 209 °C.
As for `O=c1c2c(Cc3ccccc3)n[nH]c2c2ccccc2n1-c1ccccc1` [Example 16, 3-Benzyl-5-phenyl-1H-pyrazolo[4,3-c]quinolin-4(5H)-one], the figure is 255 to 257 °C.
As to `O=c1c2c(Cc3ccccc3C(F)(F)F)n[nH]c2c2cccnc2n1-c1cccc(OC(F)(F)F)c1` [Example 23, 5-(3-Trifluoromethoxyphenyl)-3-(2-trifluoromethylbenzyl)-1H-pyrazolo[4,3-c][1,8]naphthyridin-4(5H)-one], the melting point lay within 252 to 255 °C.
For the compound `O=c1c2c(Cc3ccc(F)cc3)n[nH]c2c2cccnc2n1-c1cccc(OC(F)(F)F)c1` (hydrate or solvate) [Example 32, 3-(4-Fluorobenzyl)-5-(3-trifluoromethoxyphenyl)-1H-pyrazolo[4,3-c][1,8]-naphthyridin-4(5H)-one], the melting point is 226 to 228 °C.
As for `O=c1c2c(Cc3cccc(OC(F)(F)F)c3)n[nH]c2c2cccnc2n1-c1ccccc1` (hydrate or solvate) [Example 5, 5-Phenyl-3-(3-trifluoromethoxybenzyl)-1H-pyrazolo[4,3-c][1,8]naphthyridin-4(5H)-one], the figure is 253 to 254 °C; as for `O=c1c2c(CCC(F)(F)F)n[nH]c2c2cccnc2n1-c1ccccc1` [Example 14, 5-Phenyl-3-(3,3,3-trifluoropropyl)-1H-pyrazolo[4,3-c][1,8]naphthyridin-4(5H)-one], 272 to 274 °C; as for `O=c1c2c(Cc3cccc(OC(F)(F)F)c3)n[nH]c2c2cccnc2n1-c1cccc(OC(F)(F)F)c1` [Example 27, 3-(3-Trifluoromethoxybenzyl)-5-(3-trifluoromethoxyphenyl)-1H-pyrazolo[4,3-c][1,8]naphthyridin-4(5H)-one], 174 to 177 °C.
Compound `CC(c1ccccc1)c1n[nH]c2c1c(=O)n(-c1cccc(C(F)(F)F)c1)c1ncccc21` (stereo not drawn) [Example 42, 3-(1-Phenylethyl)-5-(3-trifluoromethylphenyl)-1H-pyrazolo[4,3-c][1,8]naphthyridin-4(5H)-one] showed a melting point of 235 to 237 °C.
On to `O=c1c2c(Cc3ccccc3Cl)n[nH]c2c2cccnc2n1-c1cccc(OC(F)(F)F)c1` (hydrate or solvate) [Example 33, 3-(2-Chlorobenzyl)-5-(3-trifluoromethoxyphenyl)-1H-pyrazolo[4,3-c][1,8]-naphthyridin-4(5H)-one], for which the melting point fell in the range of 273 to 275 °C.
The figure for `O=c1c2c(Cc3ccc(F)cc3)n[nH]c2c2cccnc2n1-c1cccc(C(F)(F)F)c1` (hydrate or solvate) [Example 38, 3-(4-Fluorobenzyl)-5-(3-trifluoromethylphenyl)-1H-pyrazolo[4,3-c][1,8]-naphthyridin-4(5H)-one] is 243 to 245 °C; for `O=c1c2c(Cc3ccc(OC(F)(F)F)cc3)n[nH]c2c2cccnc2n1-c1ccccc1` (hydrate or solvate) [Example 6, 5-Phenyl-3-(4-trifluoromethoxybenzyl)-1H-pyrazolo[4,3-c][1,8]naphthyridin-4(5H)-one] it is 216 to 218 °C; for `O=c1c2c(Cc3ccccc3)n[nH]c2c2cnccc2n1-c1ccccc1` [Example 15, 3-Benzyl-5-phenyl-1H-pyrazolo[4,3-c][1,6]naphthyridin-4(5H)-one] it is 284 to 287 °C.
`O=c1c2c(Cc3ccccc3)n[nH]c2c2ncccc2n1-c1ccccc1` (hydrate or solvate) [Example 30, 3-Benzyl-5-phenyl-1H-pyrazolo[4,3-c][1,5]naphthyridin-4(5H)-one] registered a melting point of 269 to 272 °C.
`O=c1c2c(Cc3ccccc3[N+](=O)[O-])n[nH]c2c2cccnc2n1-c1cccc(C(F)(F)F)c1` (hydrate or solvate) [Example 41, 3-(2-Nitrobenzyl)-5-(3-trifluoromethylphenyl)-1H-pyrazolo[4,3-c][1,8]-naphthyridin-4(5H)-one] yielded a melting point of 282 to 284 °C.
As for `O=c1c2c(Cc3ccccc3OC(F)(F)F)n[nH]c2c2cccnc2n1-c1cccc(C(F)(F)F)c1` [Example 20, 3-(2-Trifluoromethoxybenzyl)-5-(3-trifluoromethylphenyl)-1H-pyrazolo[4,3-c][1,8]naphthyridin-4(5H)-one], the figure is 247 to 252 °C.
As for `O=c1c2c(Cc3ccccc3Cl)n[nH]c2c2cccnc2n1-c1cccc(C(F)(F)F)c1` (hydrate or solvate) [Example 39, 3-(2-Chlorobenzyl)-5-(3-trifluoromethylphenyl)-1H-pyrazolo[4,3-c][1,8]-naphthyridin-4(5H)-one], the figure is 276 to 278 °C; as for `O=c1c2c(Cc3ccccc3)n[nH]c2c2cccnc2n1-c1cccc(C(F)(F)F)c1` (hydrate or solvate) [Example 2, 3-Benzyl-5-(3-trifluoromethylphenyl)-1H-pyrazolo[4,3-c][1,8]-naphthyridin-4(5H)-one], 226 to 228 °C.
As for `O=c1c2c(Cc3cccc(C(F)(F)F)c3)n[nH]c2c2cccnc2n1-c1ccccc1` [Example 9, 5-Phenyl-3-(3-trifluoromethylbenzyl)-1H-pyrazolo[4,3-c][1,8]naphthyridin-4(5H)-one], the figure is 303 to 305 °C.

The melting point is the temperature, or range, at which the solid turns liquid.

These data come from patent US8193356B2, “Heterocycle compound, and production process and application thereof” (Aska Pharmaceutical Co., Ltd., priority 2005, dated 2012).
